Columns and labels:
[1] = in vivo
Description: • 1. It was recently discovered that the transcription factor Zinc-finger protein Gli-similar (Glisl) is found only in psoriatic and not in the epidermis of healthy skin^2. The expression of this protein is restricted to the suprabasal level of the psoriatic epidermis. […] The mode of action of the drug involves displacement Zinc from the protein by the axial ligation of the drug's cobalt (III) complex to the nitrogen of the imidazole ring of the histidine residues. The zinc-finger bearing protein is thus inactivated^4. • We have discovered that Doxovir (CTC-96) will inactivate Glis1 in Psoriatic epidermis and as a result may selectively retard the abnormal proliferation and differentiation of psoriatic keratinocytes. • 2. There have been several reports of the possibility that Human Papilloma Viruses (HPVs) are associated with at least certain manifestations of psoriasis (e.g. ^5,6,7,8). Papillomaviruses proliferate and affect the differentiation and proliferation of keratinocytes. The possible role of the virus (particularly HPV type 5) in the etiology or the maintenance of the abnormal differentiation of psoriatic human skin keratinocytes has thus been postulated. • JunB protein, a component of the ubiquitous transcription factor AP-1, regulates cell proliferation, differentiation, stress responses and cytokine expression in various tissues. […]

[2] = tested on: Zinc-fingers in which the Zinc is tetrahedrally coordinated to cysteines and histidines; conditions: cysteine/histidine-coordinated Zinc; cited from earlier work
[3] = tested on: Papillomaviruses; conditions: cited from earlier work
[4] = tested on: type II collagen-induced arthritis; conditions: mice; cited from earlier work

## CC(/C=C(/C)[O-])=NCCN=C(C)/C=C(/C)[O-].Cc1ncc[nH]1.Cc1ncc[nH]1.[Br-].[Co+3] [Doxovir]
[1]
  adverse effects on intact skin: no adverse effects on intact skin
[2]
  disruption of structure and function of Zinc-fingers: selectively disrupts the structure and function of Zinc-fingers
[3]
  anti-papillomavirus activity: distinct anti-papillomavirus activity
[4]
  therapeutic activity for type II collagen-induced arthritis: proven to have therapeutic activity
